Source: ChEMBL document CHEMBL3585343, “Fragment-Based Discovery of Low-Micromolar ATAD2 Bromodomain Inhibitors” (J Med Chem, 2015)
Converted amounts (≈) assume the structure as drawn.

Key:
[1] = Distribution coefficient, log D of the compound at pH 7.4 by chromatographic method; format: physicochemical
[2] = target: Bromodomain-containing protein 4 (Homo sapiens, UniProt O60885, Y390A)
[3] = target: Bromodomain-containing protein 2 (Homo sapiens, UniProt P25440, Y386A)
[4] = Permeability across phosphatidyl choline membrane at pH 7.4 after 3 hrs by HPLC with UV detection method; format: ADME; settings: not told, read-out: permeability
[5] = target: Bromodomain-containing protein 3 (Homo sapiens, UniProt Q15059, Y348A); assay: Binding affinity to 6-His-Thr BRD3 (1 to 435) BD1 (unknown origin) harboring BD2 Y348A mutant
[6] = target: Bromodomain-containing protein 3 (Homo sapiens, UniProt Q15059, Y37A); assay: Binding affinity to BRD3 6-His-Thr BRD3 (1 to 435) BD2 (unknown origin) harboring BD1 Y37A mutant
[7] = Lipophilicity, log P of the compound; format: physicochemical; settings: octanol/water
[8] = target: Bromodomain testis-specific protein (Homo sapiens, UniProt Q58F21, Y309A); assay: Binding affinity to 6-His-FLAG-Tev-BRDT BD1 (1 to 397) (unknown origin) harboring BD2 Y309A mutant
[9] = Solubility of the compound in phosphate buffered saline at pH 7.4 after 1 hr by CLND method; format: physicochemical
[10] = target: Bromodomain testis-specific protein (Homo sapiens, UniProt Q58F21, Y66A); assay: Binding affinity to 6-His-FLAG-Tev-BRDT BD2 (1 to 397) (unknown origin) harboring BD1 Y66A mutant
[11] = target: Bromodomain-containing protein 2 (Homo sapiens, UniProt P25440, Y113A)
[12] = target: Bromodomain-containing protein 4 (Homo sapiens, UniProt O60885, Y97A)

Sequence of Bromodomain-containing protein 3 (Homo sapiens, UniProt Q15059, Y37A) (Q15059 whole entry, looked up, stated change not applied): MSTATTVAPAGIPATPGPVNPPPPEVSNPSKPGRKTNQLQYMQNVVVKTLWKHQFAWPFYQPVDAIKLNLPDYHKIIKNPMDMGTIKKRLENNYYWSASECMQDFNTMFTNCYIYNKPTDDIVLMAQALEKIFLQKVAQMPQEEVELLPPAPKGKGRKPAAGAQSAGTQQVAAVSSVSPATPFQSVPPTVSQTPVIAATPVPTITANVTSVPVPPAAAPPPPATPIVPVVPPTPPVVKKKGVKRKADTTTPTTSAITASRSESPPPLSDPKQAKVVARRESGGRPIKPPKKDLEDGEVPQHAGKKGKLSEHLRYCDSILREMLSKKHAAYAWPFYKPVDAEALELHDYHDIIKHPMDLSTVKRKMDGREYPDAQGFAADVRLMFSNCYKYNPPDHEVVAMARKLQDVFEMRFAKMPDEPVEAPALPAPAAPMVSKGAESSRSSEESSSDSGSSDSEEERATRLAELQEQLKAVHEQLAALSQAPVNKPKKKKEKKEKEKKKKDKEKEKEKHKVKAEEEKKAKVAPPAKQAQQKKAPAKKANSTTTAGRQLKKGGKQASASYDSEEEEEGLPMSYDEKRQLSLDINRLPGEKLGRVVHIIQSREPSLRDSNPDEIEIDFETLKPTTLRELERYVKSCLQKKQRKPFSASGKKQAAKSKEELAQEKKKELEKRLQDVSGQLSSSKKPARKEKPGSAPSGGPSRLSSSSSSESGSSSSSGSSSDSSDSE
Sequence of Bromodomain-containing protein 2 (Homo sapiens, UniProt P25440, Y386A) (P25440 whole entry Y386A): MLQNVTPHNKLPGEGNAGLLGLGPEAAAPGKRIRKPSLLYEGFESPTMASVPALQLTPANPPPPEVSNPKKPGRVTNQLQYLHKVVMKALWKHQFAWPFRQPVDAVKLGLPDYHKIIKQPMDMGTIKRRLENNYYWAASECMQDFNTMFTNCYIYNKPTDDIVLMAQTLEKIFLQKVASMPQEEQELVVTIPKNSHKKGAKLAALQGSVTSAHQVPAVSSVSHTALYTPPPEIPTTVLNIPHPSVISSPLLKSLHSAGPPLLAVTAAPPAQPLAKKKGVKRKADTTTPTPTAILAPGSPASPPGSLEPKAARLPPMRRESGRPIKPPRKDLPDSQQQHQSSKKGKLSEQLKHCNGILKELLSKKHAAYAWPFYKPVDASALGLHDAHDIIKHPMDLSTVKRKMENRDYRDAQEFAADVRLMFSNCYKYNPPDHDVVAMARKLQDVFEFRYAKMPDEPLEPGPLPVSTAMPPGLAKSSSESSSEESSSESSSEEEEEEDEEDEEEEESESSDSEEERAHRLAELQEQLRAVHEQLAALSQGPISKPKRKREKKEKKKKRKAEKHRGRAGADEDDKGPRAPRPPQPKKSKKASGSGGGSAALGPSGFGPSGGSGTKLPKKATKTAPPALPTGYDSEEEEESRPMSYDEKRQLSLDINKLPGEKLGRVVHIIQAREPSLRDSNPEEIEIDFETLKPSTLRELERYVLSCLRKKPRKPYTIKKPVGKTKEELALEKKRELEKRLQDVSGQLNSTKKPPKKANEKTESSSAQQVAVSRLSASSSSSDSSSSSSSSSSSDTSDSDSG
Sequence of Bromodomain-containing protein 3 (Homo sapiens, UniProt Q15059, Y348A) (Q15059 2-726 Y348A limits assumed): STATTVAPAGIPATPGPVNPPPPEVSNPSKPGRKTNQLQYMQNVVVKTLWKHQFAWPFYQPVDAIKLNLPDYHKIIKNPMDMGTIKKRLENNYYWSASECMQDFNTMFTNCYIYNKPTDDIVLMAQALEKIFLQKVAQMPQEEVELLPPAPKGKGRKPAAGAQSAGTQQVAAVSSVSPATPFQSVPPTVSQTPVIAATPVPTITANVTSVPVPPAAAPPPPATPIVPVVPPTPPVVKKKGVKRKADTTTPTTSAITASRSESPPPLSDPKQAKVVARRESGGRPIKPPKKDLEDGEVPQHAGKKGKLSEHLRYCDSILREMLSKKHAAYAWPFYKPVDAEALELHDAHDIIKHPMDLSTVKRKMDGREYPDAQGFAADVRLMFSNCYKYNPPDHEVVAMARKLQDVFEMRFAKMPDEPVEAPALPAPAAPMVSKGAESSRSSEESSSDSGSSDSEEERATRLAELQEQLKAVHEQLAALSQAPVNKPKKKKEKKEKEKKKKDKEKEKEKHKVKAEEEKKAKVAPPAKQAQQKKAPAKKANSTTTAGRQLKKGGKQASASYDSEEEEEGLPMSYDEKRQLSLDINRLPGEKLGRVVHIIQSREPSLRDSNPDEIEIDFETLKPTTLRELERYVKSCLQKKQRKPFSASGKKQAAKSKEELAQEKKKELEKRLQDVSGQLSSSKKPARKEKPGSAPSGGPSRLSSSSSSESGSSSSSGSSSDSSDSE
Sequence of Bromodomain-containing protein 2 (Homo sapiens, UniProt P25440, Y113A) (P25440 whole entry Y113A): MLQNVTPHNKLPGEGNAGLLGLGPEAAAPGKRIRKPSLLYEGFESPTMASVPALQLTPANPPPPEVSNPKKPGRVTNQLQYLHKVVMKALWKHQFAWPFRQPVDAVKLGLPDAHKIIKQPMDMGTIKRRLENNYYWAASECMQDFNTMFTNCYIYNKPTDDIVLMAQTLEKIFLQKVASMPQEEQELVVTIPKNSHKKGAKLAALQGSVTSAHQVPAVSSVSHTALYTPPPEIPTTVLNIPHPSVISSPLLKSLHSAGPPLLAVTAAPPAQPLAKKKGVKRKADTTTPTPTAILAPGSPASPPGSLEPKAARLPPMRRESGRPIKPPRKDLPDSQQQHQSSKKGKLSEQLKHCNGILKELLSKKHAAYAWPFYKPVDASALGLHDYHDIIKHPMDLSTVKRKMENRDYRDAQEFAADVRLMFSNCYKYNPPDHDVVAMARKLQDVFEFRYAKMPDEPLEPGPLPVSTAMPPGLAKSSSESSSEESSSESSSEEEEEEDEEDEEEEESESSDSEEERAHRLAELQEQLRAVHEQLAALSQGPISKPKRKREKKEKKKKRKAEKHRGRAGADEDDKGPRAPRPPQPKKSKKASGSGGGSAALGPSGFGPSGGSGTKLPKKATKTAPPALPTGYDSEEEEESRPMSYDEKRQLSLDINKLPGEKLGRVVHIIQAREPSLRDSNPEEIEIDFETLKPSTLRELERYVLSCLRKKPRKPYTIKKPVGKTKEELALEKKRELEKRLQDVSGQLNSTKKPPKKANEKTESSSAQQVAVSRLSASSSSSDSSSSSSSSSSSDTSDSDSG

| SMILES | chromatographic logD [1] | IC50 [2] | further results |
| --- | --- | --- | --- |
| Cc1cc2c(-c3cc[nH]n3)cnc(NC3CCNCC3)c2[nH]c1=O | 0.4 | 1.26 µM | – |
| Cc1ncccc1-c1cnc(NC2CCNCC2)c2[nH]c(=O)c(C)cc12 | 0.8 | 6.31 µM | – |
| Cc1ccc(-c2cnc(NC3CCNCC3)c3[nH]c(=O)c(C)cc23)cn1 | 1.1 | 1 µM | – |
| Cc1cncc(-c2cnc(NC3CCNCC3)c3[nH]c(=O)c(C)cc23)c1 | 1.2 | – | IC50 [3]: 6.31 µM; Papp at 3 h [4]: < 0.3 ×10⁻⁶ cm/s; IC50 [5]: 7.94 µM; IC50 [6]: 20 µM; logP [7]: 2.4; IC50 [8]: 7.94 µM; solubility kinetic at 1 h [9]: ≥ 207 µM; IC50 [10]: 31.6 µM; IC50 [11]: 20 µM |
| Cc1ccncc1-c1cnc(NC2CCNCC2)c2[nH]c(=O)c(C)cc12 | 0.9 | 3.16 µM | – |
| COc1ccc(-c2cnc(NC3CCNCC3)c3[nH]c(=O)c(C)cc23)cn1 | 1.6 | 1.26 µM | – |
| COc1cncc(-c2cnc(NC3CCNCC3)c3[nH]c(=O)c(C)cc23)c1 | 1.1 | 1.26 µM | IC50 [3]: 3.98 µM; Papp at 3 h [4]: < 0.3 ×10⁻⁶ cm/s; IC50 [5]: 6.31 µM; IC50 [12]: 15.8 µM; IC50 [6]: 20 µM; logP [7]: 2.7; IC50 [8]: 6.31 µM; solubility kinetic at 1 h [9]: 250 µM (≈ 91.4 µg/mL); IC50 [10]: 25.1 µM; IC50 [11]: 20 µM |
| Cc1cc2c(-c3cncc(Cl)c3)cnc(NC3CCNCC3)c2[nH]c1=O | 1.7 | 6.31 µM | – |
| Cc1cc2c(-c3cncc(C(N)=O)c3)cnc(NC3CCNCC3)c2[nH]c1=O | -0.2 | 3.98 µM | – |
| Cc1cncc(-c2cnc(NC3CCNCC3)c3[nH]c(=O)c(C)cc23)c1C | 1.4 | 7.94 µM | – |
| Cc1cc2c(-c3cncc(N)c3)cnc(NC3CCNCC3)c2[nH]c1=O | 0 | 2 µM | – |
| Cc1cc2c(-c3cncc(NS(C)(=O)=O)c3)cnc(NC3CCNCC3)c2[nH]c1=O | 0.2 | 0.794 µM | – |
| Cc1cc2c(-c3cncc(COC(N)=O)c3)cnc(NC3CCNCC3)c2[nH]c1=O | 0.3 | – | – |
| Cc1cc2c(-c3cncnc3)cnc(NC3CCNCC3)c2[nH]c1=O | 0.3 | 15.8 µM | – |
| Cc1cc2ccccc2[nH]c1=O | – | 39.8 µM | – |
| Cc1cc2cccc(NCCN(C)C)c2[nH]c1=O | – | 25.1 µM | – |
| CCCNc1cccc2cc(C)c(=O)[nH]c12 | – | > 50.1 µM | – |
| Cc1cc2cccc(NCCO)c2[nH]c1=O | – | 39.8 µM | – |
| Cc1cc2cccc(NCCCO)c2[nH]c1=O | – | 5.01 µM | – |
| Cc1cc2cccc(NCc3ncc[nH]3)c2[nH]c1=O | – | 50.1 µM | – |
| COCCNc1cccc2cc(C)c(=O)[nH]c12 | – | > 50.1 µM | – |

| SMILES | chromatographic logD [1] | IC50 [2] | further results |
| --- | --- | --- | --- |
| Cc1cc2cccc(NCCC(=O)O)c2[nH]c1=O | – | > 50.1 µM | – |
| Cc1cc2cccc(NCCCN(C)C)c2[nH]c1=O | – | 10 µM | – |
| Cc1cc2ccnc(NC3CCNCC3)c2[nH]c1=O | 0.6 | – | – |
| Cc1cc2ccnc(NCCC3CCNCC3)c2[nH]c1=O | – | 12.6 µM | – |
| Cc1cc2ccnc(NCCC3CCCNC3)c2[nH]c1=O (configuration not stated) | – | 25.1 µM | – |
| Cc1cc2ccnc(NCC(C)(C)CN(C)C)c2[nH]c1=O | – | 158 µM | – |
| Cc1cc2ccnc(N[C@@H]3CCCNC3)c2[nH]c1=O | – | 15.8 µM | – |
| Cc1cc2ccnc(NC3CCN(C)CC3)c2[nH]c1=O | 0.5 | – | – |
| Cc1cc2ccnc(NC3CCN(C4CC4)CC3)c2[nH]c1=O | 2.8 | – | – |
| COCCN1CCC(Nc2nccc3cc(C)c(=O)[nH]c23)CC1 | 1.4 | – | – |
| COCCCN1CCC(Nc2nccc3cc(C)c(=O)[nH]c23)CC1 | 1.4 | 3.98 µM | – |
| Cc1cc2ccnc(N[C@H]3C[C@H]4CC[C@@H](C3)N4C)c2[nH]c1=O | 1.2 | – | – |
| Cc1cc2ccnc(N[C@@H]3C[C@H]4CC[C@@H](C3)N4C)c2[nH]c1=O | 1 | – | – |
| Cc1cc2c(-c3ccccc3)cnc(NC3CCNCC3)c2[nH]c1=O | 2.5 | 0.794 µM | – |
| CC(=O)N1CCc2cc(-c3cnc(NC4CCNCC4)c4[nH]c(=O)c(C)cc34)ccc21 | 1.4 | 1 µM | – |
| Cc1cc2c(-c3cccc(O)c3)cnc(NC3CCNCC3)c2[nH]c1=O | 1.3 | 0.631 µM | – |
| Cc1cc2c(-c3cccc4[nH]ncc34)cnc(NC3CCNCC3)c2[nH]c1=O | 1.2 | 0.126 µM | – |
| Cc1cc2c(-c3cccnc3)cnc(NC3CCNCC3)c2[nH]c1=O | 0.8 | 2 µM | – |
| Cc1cc2c(-c3cn[nH]c3)cnc(NC3CCNCC3)c2[nH]c1=O | 0 | 0.794 µM | – |
| Cc1cc2c(-c3ccncc3)cnc(NC3CCNCC3)c2[nH]c1=O | 1 | 3.16 µM | – |
| Cc1cc2c(-c3ccccn3)cnc(NC3CCNCC3)c2[nH]c1=O | 1 | 5.01 µM | – |
